Where two headings read alike, the source gives them in different places.
How the values were obtained:
[1] = tested on: PD1-ss+10aa/Gaussia Luciferase; test: Dox-Induced PD1-ss-Gluc Assay; assay type: cell-based; conditions: 24 hr Dox induction, 293FRT/TO cells, read-out: 24 hr Dox Inducible PD1ssGluc 293FRT/TO: Mean IC50
Method in brief: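 Compounds were added in DMSO/media with doxycycline and incubated at 37 °C, 5% CO2, on 293 T-REx cells plated one day earlier. These cells stably express, under tetracycline-regulated control, a Gaussia luciferase fused to the PD1 signal peptide plus 10 residues. Structures drawn without stereochemistry were tested as stereoisomer mixtures.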

[2] = tested on: TNFα-FL/Gaussia Luciferase; test: Dox Induced TNFα-FL-Gluc Assay; assay type: cell-based; conditions: for IC50: 24 hr Dox induction, 293FRT/TO cells, read-out: 24 hr Dox Inducible TNFaFLGluc 293FRT/TO: Mean IC50; for 24 hr Dox Inducible TNFaFLGluc 293FRT/TO: TNF/PD1: ratio of TNFaFLGluc IC50 to PD1ssGluc IC50
Method in brief: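 Flp-In 293 T-REx cells stably expressing full-length TNFα (aa 1-233) fused at its C-terminus to Gaussia luciferase under tetracycline-regulated control were plated the day before assay. Compound dilutions in DMSO/media containing doxycycline were added and incubated at 37 °C, 5% CO2. Unspecified stereochemistry denotes stereoisomer mixtures.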

[3] = tested on: HER3-ss+4aa/Gaussia Luciferase; test: Dox-Induced Her3-ss-Gluc Assay; assay type: cell-based; conditions: 24 hr Dox induction, 293FRT/TO cells, read-out: 24 hr Dox Inducible Her3(ss + 4)Gluc 293FRT/TO: Mean IC50
Method in brief: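 Stable Flp-In 293 T-REx line expressing Gaussia luciferase fused to the HER3 signal sequence plus 4 amino acids under tetracycline-regulated (T-REx) control. Cells plated the day before, then treated with compound dilutions in DMSO/media containing doxycycline and incubated at 37° C., 5% CO2.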

[4] = tested on: IL-2-FL/Gaussia Luciferase; test: Dox Induced IL2-FL-Gluc Assay; assay type: cell-based; conditions: for IC50: 24 hr Dox induction, 293FRT/TO cells, read-out: 24 hr Dox Inducible IL2FLGluc 293FRT/TO: Mean IC50; for 24 hr Dox Inducible IL2FLGluc 293FRT/TO: IL2/PD1: ratio of IL2FLGluc IC50 to PD1ssGluc IC50
Method in brief: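 Flp-In 293 T-REx cells stably carrying doxycycline-inducible full-length IL-2 (aa 1-153) fused at its C-terminus to Gaussia luciferase, selected with hygromycin and blasticidin. Cells were plated the day before, then treated with compounds in DMSO/media containing doxycycline at 37° C, 5% CO2.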

[5] = tested on: multiple myeloma cell line NCI-H929; test: H929 Cell Viability Assay; assay type: cell-based, human; conditions: Homo sapiens, NCI-H929, 48 h, NCI-H929 cells, Celltiter-Glo
Method in brief: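 NCI-H929 cells, resuspended in RPMI 1640 with 10% FBS and 2 mM glutamine, were treated with compound dilutions in DMSO/media and incubated 48 hours at 37° C, 5% CO2. Viability was read by CellTiter-Glo luminescence. Compounds drawn without stereochemistry were tested as stereoisomer mixtures.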

[6] = tested on: multiple myeloma cell line U266B1; test: U266 Cell Viability Assay; assay type: cell-based, human; conditions: Homo sapiens, U-266, 48 h, U266B1 cells, Celltiter-Glo
Method in brief: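 Cells grown in RPMI 1640 with 10% FBS, 2 mM glutamine and penicillin/streptomycin were exposed to compound dilutions in DMSO/media for 48 hours at 37° C., 5% CO2. Viability was read by CellTiter-Glo luminescence. Undefined stereocentres mean data for stereoisomer mixtures.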

[7] = Liver Microsome Stability Assay (rat); conditions: rat liver microsomes, with NADPH, 1.0 uM compound
Procedure: (§1) Stability of a compound was assessed in the presence of liver microsomes from various sources—mouse, rat, monkey and human liver microsomes. 1.0 uM compound, 0.4% DMSO in 0.1 M Potassium Phosphate with 1.0 mg/mL liver microsomes, were incubated at 37° C. with or without 1 mM NADPH. The samples were quenched at 0, and 30 minutes.

[8] = Liver Microsome Stability Assay (mouse); conditions: mouse liver microsomes, with NADPH, 1.0 uM compound
Procedure: as §1

[9] = Liver Microsome Stability Assay (human); conditions: human liver microsomes, with NADPH, 1.0 uM compound
Procedure: as §1

[10] = Liver Microsome Stability Assay (monkey); conditions: monkey liver microsomes, with NADPH, 1.0 uM compound
Procedure: as §1

[11] = '<=>' given where both are I.A.

| SMILES | IC50 [1] | IC50 [2] | IC50 [3] | IC50 [4] | EC50 [5] | EC50 [6] | Liver Microsome Stability (Multiple Species): Rat - % Remaining after 30 min w/NADPH [7] | Liver Microsome Stability (Multiple Species): Mouse - % Remaining after 30 min w/NADPH [8] | Liver Microsome Stability (Multiple Species): Human - % Remaining after 30 min w/NADPH [9] | Liver Microsome Stability (Multiple Species): Monkey - % Remaining after 30 min w/NADPH [10] | IC50 ([1]; mean) | IC50 ([2]; mean) | IC50 ([3]; mean) | IC50 ([4]; mean) | 24 hr Dox Inducible TNFaFLGluc 293FRT/TO: TNF/PD1 [2] | 24 hr Dox Inducible IL2FLGluc 293FRT/TO: IL2/PD1 [4] | 24 hr Dox Inducible TNFaFLGluc 293FRT/TO: TNF/PD1 [2, 11] | 24 hr Dox Inducible IL2FLGluc 293FRT/TO: IL2/PD1 [4, 11] |
| --- | --- | --- | --- | --- | --- | --- | --- | --- | --- | --- | --- | --- | --- | --- | --- | --- | --- | --- |
| COCCOc1ccc(N2CCC[C@@H]2c2csc(NC(=O)c3cccn3Cc3ccnc(F)c3)n2)cc1 [Compound A127, (R)-1-((2-fluoropyridin-4-yl)methyl)-N-(4-(1-(4-(2-methoxyethoxy)phenyl)pyrrolidin-2-yl)thiazol-2-yl)-1H-pyrrole-2-carboxamide] | 5.65 nM | 107 nM | 10.8 nM | 10.1 nM | 278 nM | > 25000 nM | 0.26% | 3.95% | 30.6% | 24.4% | – | – | – | – | 19 | 1.8 | – | – |
| [2H]c1cc([2H])cc(N2CCC[C@@H]2c2csc(NC(=O)c3cccn3Cc3ccnc(F)c3)n2)c1 [Compound A95, (R)-1-((2-fluoropyridin-4-yl)methyl)-N-(4-(1-(phenyl-3,5-d2)pyrrolidin-2-yl)thiazol-2-yl)-1H-pyrrole-2-carboxamide] | 8.34 nM | 133 nM | 14.8 nM | 18.6 nM | 590 nM | > 25000 nM | 13.9% | 10.2% | 8.25% | 0.88% | – | – | – | – | 15.9 | 2.2 | – | – |
| CC(C)OC(=O)Nc1ccc(N2CCC[C@@H]2c2csc(NC(=O)c3cccn3Cc3ccnc(F)c3)n2)cc1 [Compound A146, isopropyl (R)-(4-(2-(2-(1-((2-fluoropyridin-4-yl)methyl)-1H-pyrrole-2-carboxamido)thiazol-4-yl)pyrrolidin-1-yl)phenyl)carbamate] | 0.97 nM | 20.6 nM | 2.47 nM | 2.56 nM | 39.3 nM | > 25000 nM | 54.1% | 34.8% | 49.5% | 21.6% | – | – | – | – | 21.1 | 2.6 | – | – |
| COC(=O)Nc1ccc(N2CCC[C@@H]2c2csc(NC(=O)c3cc(C)cn3Cc3ccnc(F)c3)n2)nc1 [Compound A180, methyl (R)-(6-(2-(2-(1-((2-fluoropyridin-4-yl)methyl)-4-methyl-1H-pyrrole-2-carboxamido)thiazol-4-yl)pyrrolidin-1-yl)pyridin-3-yl)carbamate] | 4.95 nM | 49.8 nM | 3.7 nM | 14.3 nM | 715 nM | > 25000 nM | 3.14% | 14.4% | 8.99% | 7.35% | – | – | – | – | 440.37 | 52.35 | – | – |

Second part, led by results:

| IC50 [1] | IC50 [2] | IC50 [3] | IC50 [4] | EC50 [5] | EC50 [6] | Liver Microsome Stability (Multiple Species): Rat - % Remaining after 30 min w/NADPH [7] | Liver Microsome Stability (Multiple Species): Mouse - % Remaining after 30 min w/NADPH [8] | Liver Microsome Stability (Multiple Species): Human - % Remaining after 30 min w/NADPH [9] | Liver Microsome Stability (Multiple Species): Monkey - % Remaining after 30 min w/NADPH [10] | IC50 ([1]; mean) | IC50 ([2]; mean) | IC50 ([3]; mean) | IC50 ([4]; mean) | SMILES | 24 hr Dox Inducible TNFaFLGluc 293FRT/TO: TNF/PD1 [2] | 24 hr Dox Inducible IL2FLGluc 293FRT/TO: IL2/PD1 [4] | 24 hr Dox Inducible TNFaFLGluc 293FRT/TO: TNF/PD1 [2, 11] | 24 hr Dox Inducible IL2FLGluc 293FRT/TO: IL2/PD1 [4, 11] |
| --- | --- | --- | --- | --- | --- | --- | --- | --- | --- | --- | --- | --- | --- | --- | --- | --- | --- | --- |
| 228 nM | > 25000 nM | 15600 nM | > 25000 nM | 16900 nM | > 25000 nM | 9.66% | 11.7% | 0.58% | 0.06% | – | – | – | – | CC(C)c1c(/C=C/c2csc(NC(=O)c3cccn3Cc3ccnc(F)c3)n2)ncn1C [Compound B81, (E)-1-((2-fluoropyridin-4-yl)methyl)-N-(4-(2-(5-isopropyl-1-methyl-1H-imidazol-4-yl)vinyl)thiazol-2-yl)-1H-pyrrole-2-carboxamide] | >109 | >110 | – | – |
| 467 nM | 13900 nM | 2100 nM | 6090 nM | 7910 nM | 11900 nM | 0.55% | 0.64% | 0.32% | 0.17% | – | – | – | – | Cc1cccc(/C=C/c2csc(NC(=O)c3cccn3Cc3ccnc(F)c3)n2)n1 [Compound B59, (E)-1-((2-fluoropyridin-4-yl)methyl)-N-(4-(2-(6-methylpyridin-2-yl)vinyl)thiazol-2-yl)-1H-pyrrole-2-carboxamide] | 29.7 | 13 | – | – |
| 11.6 nM | 19000 nM | 4280 nM | 6530 nM | 15300 nM | 19500 nM | 2.51% | 6.67% | 0.38% | 0.25% | – | – | – | – | CC1CCCc2c(/C=C/c3csc(NC(=O)c4cccn4Cc4ccnc(F)c4)n3)ncn21 (centres unmarked) [Compound B101, (E)-1-((2-fluoropyridin-4-yl)methyl)-N-(4-(2-(5-methyl-5,6,7,8-tetrahydroimidazo[1,5-a]pyridin-1-yl)vinyl)thiazol-2-yl)-1H-pyrrole-2-carboxamide] | 1640 | 560 | – | – |
| – | – | – | – | > 25000 nM | > 25000 nM | 36.8% | 38% | 62.8% | 51.1% | 4420 nM | > 25000 nM | 1830 nM | 2060 nM | Cc1cccc(Cn2cccc2C(=O)Nc2nc([C@H]3CCCN3c3ccccc3)cs2)c1 [Compound C120, (R)-1-(3-methylbenzyl)-N-(4-(1-phenylpyrrolidin-2-yl)thiazol-2-yl)-1H-pyrrole-2-carboxamide] | – | – | >5.66 | 0.47 |
| – | – | – | – | > 25000 nM | > 25000 nM | 9.09% | 1.28% | 0.44% | 0.32% | > 25000 nM | > 25000 nM | > 25000 nM | > 25000 nM | Cc1ccc(S(=O)(=O)N(C(=O)c2cccn2Cc2ccncc2)c2nc([C@H]3CCCN3S(=O)(=O)c3ccc(C)cc3)cs2)cc1 [Compound E52, (R)-1-(pyridin-4-ylmethyl)-N-tosyl-N-(4-(1-tosylpyrrolidin-2-yl)thiazol-2-yl)-1H-pyrrole-2-carboxamide] | – | – | – | 1 |
